# Assay results as given in ChEMBL document CHEMBL1149385, “A selective estrogen receptor modulator for the treatment of hot flushes” (J Med Chem, 2006).
# Active and inactive are the calls of the source. No cut-off for these calls is given here.
# Assays:
# Rattus norvegicus [1] = assay: Ability to block ovariectomy-induced bone loss in orally dosed Sprague-Dawley rat; assay type: functional, organism-based
# Rattus norvegicus [2] = assay: Eosinophil peroxidase activity in ovariectomized orally dosed Sprague-Dawley rat; assay type: functional, organism-based; details: filed as agonist
# Rattus norvegicus [3] = assay: Inhibition of estrogen-induced effect on uterine weight in orally dosed Sprague-Dawley rat; assay type: functional
# Estrogen receptor [4] = target: T1, Estrogen receptor (Homo sapiens, UniProt Q92731+P03372); assay: Antagonist effect on Ishikawa uterine cancer cell line in presence of 17-beta-estradiol; assay type: functional, cell-based
# Estrogen receptor beta = Estrogen receptor beta (Homo sapiens, UniProt Q92731); assay: Displacement of [3H]17beta-estradiol from ERbeta
# Estrogen receptor beta, sequence (Q92731 whole entry): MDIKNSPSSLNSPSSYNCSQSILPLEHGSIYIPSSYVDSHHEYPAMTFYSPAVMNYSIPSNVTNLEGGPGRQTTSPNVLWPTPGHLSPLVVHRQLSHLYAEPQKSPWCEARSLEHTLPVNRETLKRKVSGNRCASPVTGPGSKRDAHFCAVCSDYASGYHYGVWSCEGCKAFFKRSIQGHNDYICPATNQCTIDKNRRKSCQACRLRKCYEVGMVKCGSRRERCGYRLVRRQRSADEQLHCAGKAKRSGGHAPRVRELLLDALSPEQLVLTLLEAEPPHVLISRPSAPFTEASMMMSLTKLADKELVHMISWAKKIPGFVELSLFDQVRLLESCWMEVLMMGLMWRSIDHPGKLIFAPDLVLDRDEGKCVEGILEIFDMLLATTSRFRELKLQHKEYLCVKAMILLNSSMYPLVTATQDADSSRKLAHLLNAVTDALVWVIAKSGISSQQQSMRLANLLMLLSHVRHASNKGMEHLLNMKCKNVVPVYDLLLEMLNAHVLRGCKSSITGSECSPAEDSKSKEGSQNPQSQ
# Estrogen receptor [5] = target: T2, Estrogen receptor (Homo sapiens, UniProt P03372); assay: Displacement of [3H]17beta-estradiol from ERalpha
# T2 sequence (P03372 whole entry): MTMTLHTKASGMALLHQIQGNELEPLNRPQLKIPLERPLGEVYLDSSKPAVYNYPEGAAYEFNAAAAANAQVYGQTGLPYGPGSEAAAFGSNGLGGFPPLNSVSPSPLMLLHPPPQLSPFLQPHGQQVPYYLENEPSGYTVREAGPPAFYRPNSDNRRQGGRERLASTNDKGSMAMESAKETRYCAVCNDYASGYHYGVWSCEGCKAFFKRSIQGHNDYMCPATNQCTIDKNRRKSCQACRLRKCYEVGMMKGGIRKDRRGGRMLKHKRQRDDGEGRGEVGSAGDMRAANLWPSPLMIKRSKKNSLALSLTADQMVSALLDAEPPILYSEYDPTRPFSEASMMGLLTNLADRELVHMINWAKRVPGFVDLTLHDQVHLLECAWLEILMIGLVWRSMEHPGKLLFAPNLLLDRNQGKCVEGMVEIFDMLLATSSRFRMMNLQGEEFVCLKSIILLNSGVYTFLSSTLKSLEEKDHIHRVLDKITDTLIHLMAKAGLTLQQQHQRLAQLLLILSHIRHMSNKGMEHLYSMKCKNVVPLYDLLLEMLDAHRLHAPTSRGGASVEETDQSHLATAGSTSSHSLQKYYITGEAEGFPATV
# Estrogen receptor [6] = target: T1, Estrogen receptor; assay: Antagonist effect on breast adenocarcinoma-derived MCF7 cell line; assay type: functional, cell-based
# Rattus norvegicus [7] = assay: Ability to reduce serum cholesterol level in ovariectomized orally dosed Sprague-Dawley rat at 0.01 mg/kg; assay type: functional; set-up: scale not given: the % may be the effect or the level left; details: route oral
# Rattus norvegicus [8] = assay: Efficacy against hot flush in morphine dependent ovariectomized orally dosed Sprague-Dawley rat model; assay type: functional, organism-based
Activity (Rattus norvegicus [2]),IC50 (Estrogen receptor [4]),Ki (Estrogen receptor beta),Ki (Estrogen receptor [5]),IC50 (Estrogen receptor [6]),Structure (SMILES),Activity (Rattus norvegicus [1]),ED50 (Rattus norvegicus [3]),ED50 (Rattus norvegicus [3]; po),Activity (Rattus norvegicus [7]),Efficacy (Rattus norvegicus [8])
Antagonist,–,–,–,–,O=C(c1ccc(OCCN2CCCC2)cc1)c1c(-c2ccc(O)cc2)sc2cc(O)ccc12,Active,–,–,–,–
–,430 nM,54 nM,5.8 nM,330 nM,Cl.Oc1ccc2c3c(ccc2c1)-c1cc(F)cc(F)c1O[C@H]3c1ccc(OCCN2CCCCC2)cc1,–,inactive,–,–,–
Antagonist,5.3 nM,0.5 nM,0.3 nM,1.4 nM,Cl.Oc1ccc2c3c(ccc2c1)-c1cc(F)cc(F)c1O[C@@H]3c1ccc(OCCN2CCCCC2)cc1,Active,–,0.03 mg/kg,50%,Dose-dependent effect
